From US20060014641A1 (priority 2004, published 2006) come the findings set out here.

The subject of test [1] is boll weevil larvae. In words: Boll weevil larvae bioassay (agar liquid diet). Conditions: in vivo. Here is the method: Boll Weevil Larvae Bioassay
Assays for activity against boll weevil larvae are carried out by incorporating the test sample into a agar liquid diet similar to that for southern corn rootworm [Marrone P. G., Ferri F. D., Mosley T. R., Meinke L. J., “Improvements in laboratory rearing of the southern corn rootworm, Diabrotica undecimpunctata howardi Barber (Coleoptera: Chrysomelidae) on artificial diet and corn,” Journal of Economic Entomology, 78:290-3, 1985]. The test sample is substituted for the 20% water component. Neonate larvae are allowed to feed on the diet and mortality and growth stunting are evaluated.

A further test deals with Lepidopteran larvae. The test can be described thus: Lepidopteran larvae bioassay (artificial diet). Also on record: species or system lepidopteran insects. The following applies: in vivo. The protocol: Lepidopteran Larvae Bioassay
Lepidopteran larvae are tested on artificial diet treated with various amounts of oxalate for a number of days.

The next test relates to adult boll weevils. In words: Boll weevil reproduction test. The test is classed as in vivo. Conditions: oxalate in standard diet. The protocol:
Preoviposition: Approximately 220 adult boll weevils, collected within 2 days of emergence, are divided into two groups. […] The adults are allowed to feed and mate for four days at which time mortality is determined. Oviposition study: These two groups of adults are then divided into two subgroups and individually placed on artificial, oxalate-containing or control bolls. […] After three days at 27% C, the adults are removed and ten bolls from each of the four groups are removed and examined for eggs. The remaining bolls are incubated for an additional 7 days at 27% C to allow development of larvae. The bolls are then dissected and the eggs and larvae, dead and surviving, are counted. • Group 1=Control Adults placed on control bolls • Group 2=Control Adults placed on treated bolls • Group 3=oxalate-fed adults placed on control bolls • Group 4=oxalate-fed adults placed on treated bolls Mode of Action Studies

Test [2] relates to boll weevil larvae. In words: Cotton seed diet assay. It is filed as in vivo. The following applies: cottonseed flour diets, after six days, in the presence of cotton plant components. Here is the method: Two treatment diets are made by mixing 30 g of one of two types of cottonseed flour into 170 mL of a 1.6% agar solution at 50% C, containing 0.13% propionic acid, 0.014% phosphoric acid, and 30 mg each of streptomycin sulfate and chlortetracycline. Before mixing, 10% KOH was used to adjust the pH to 6.2. One test diet utilized raw cottonseed flour (Sigma) as the nutrient source; the other utilized Pharmamedia.™. (Traders Protein), a flour made up of cottonseed embryos. The diets were incubated in a water bath at 40% C. Dilutions of the oxalate are incorporated into the diets as described above. Boll weevil larvae are allowed to feed and mortality rates are determined after six days.

Test [3] has as its system boll weevil larvae. In words: Homogenized cotton leaf tissue assay. It is filed as in vivo. Conditions: cotton leaf tissue agar diet, evaluated six days later. Here is the method:
Homogenized Cotton Leaf Tissue Assay In order to test oxalate against boll weevil larvae in a host tissue diet environment, a study is conducted in which cotton leaf tissue is the only nutritional component of an agar-based diet. Two cotton leaves (each approx. 5 inches wide) with stems are homogenized at 50% C into 170 mL of a 1.6% agar solution containing 0.13% propionic acid, 0.014% phosphoric acid, and 30 mg each of streptomycin sulfate and chlortetracycline. Before addition of the leaves, 10% KOH is used to adjust the pH of the agar solution to 6.2. The leaf “diet” is allowed to cool to 40% C. Dilutions of oxalate and a water control are incorporated into the leaf “diet”, poured into insect diet trays and allowed to cool. Boll weevil eggs are added to the diet wells. The assay is evaluated six days later. […] This will illustrate that the oxalate is insecticidal in the presence of intact cotton tissue and cells.

`O=C(O)C(=O)O` [Oxalate, oxalic acid]: the “effect on boll weevil larvae” value in the test on boll weevil larvae [1] is “lethal”. In the test on Lepidopteran larvae, the “mortality and stunting of larvae of lepidopteran insects” value was “mortality and stunting”. Further, the “effect on reproductive cycle of adult boll weevils” value with adult boll weevils is on record as “affect the reproductive cycle”; in the test with adult boll weevils (listed as Oxlate), “interrupt the reproductive cycle”. Besides, the “mortality of boll weevil larvae” value in the test with boll weevil larvae [2] is “lethal”. Moreover, the “insecticidal activity in the presence of cotton leaf tissue” value in the test with boll weevil larvae [3] is recorded as “maintains its insecticidal activity”.
